# From ChEMBL document CHEMBL6071148, “Synthesis and biological evaluation of novel 3,6- amide and thioamide substituted- 2,3,4,9-tetrahydro-1H-carbazoles for anti-cancer activity” (Eur J Med Chem, 2024)
# pIC50: −log10 of the molar value. The source made the active and inactive calls. The rule behind the calls is not given here.
# Legend:
# MCF7 [1] = experiment: Cytotoxicity against human MCF7 cells assessed as inhibition of cell proliferation incubated for 72 hrs by MTT assay; type: functional, cell-based; conditions: MCF7, 72 h
# A549 [2] = experiment: Cytotoxicity against human A549 cells assessed as inhibition of cell proliferation incubated for 72 hrs by MTT assay; type: functional, cell-based; conditions: A549, 72 h
# HCT-116 [3] = experiment: Cytotoxicity against human HCT-116 cells assessed as inhibition of cell proliferation incubated for 72 hrs by MTT assay; type: functional, cell-based; conditions: HCT-116, 72 h
# [4] = Cytotoxicity against human MRC5 cells assessed as inhibition of cell proliferation incubated for 72 hrs by MTT assay; type: toxicity, cell-based
# MCF7 [5] = experiment: Cytotoxicity against human MCF7 cells assessed as reduction in cell viability by SRB assay; type: functional, cell-based
# HCT-116 [6] = experiment: Cytotoxicity against human HCT-116 cells assessed as reduction in cell viability by SRB assay; type: functional, cell-based
# MCF7 [7] = experiment: Inhibition of colony formation in human MCF7 cells assessed as reduction in clonogenic capacity incubated for 24 hrs by crystal violet staining based analysis; type: functional, cell-based
# HCT-116 [8] = experiment: Inhibition of colony formation in human HCT-116 cells assessed as reduction in clonogenic capacity incubated for 24 hrs by crystal violet staining based analysis; type: functional, cell-based
# A549 [9] = experiment: Inhibition of colony formation in human A549 cells assessed as reduction in clonogenic capacity incubated for 24 hrs by crystal violet staining based analysis; type: functional, cell-based
# A549 [10] = experiment: Inhibition of cell adhesion in human A549 cells assessed as reduction in cell aggregates formation at IC50 incubated for 48 hrs by inverted phase contrast microscopic analysis; type: functional, cell-based
# HCT-116 [11] = experiment: Inhibition of cell adhesion in human HCT-116 cells assessed as reduction in cell aggregates formation at IC50 incubated for 48 hrs by inverted phase contrast microscopic analysis; type: functional, cell-based
# A549 [12] = experiment: Induction of cell cycle arrest in human A549 cells assessed as accumulation of cells at S phase at IC50 incubated for 24 hrs by PI staining based flow cytometric analysis (reference value: 39.41 +/- 2.54%); type: functional
# A549 [13] = experiment: Induction of cell cycle arrest in human A549 cells assessed as accumulation of cells at G1 phase at IC50 incubated for 48 hrs by PI staining based flow cytometric analysis (reference value: 53.5 +/- 4.01%); type: functional
# A549 [14] = experiment: Induction of cell cycle arrest in human A549 cells assessed as accumulation of cells at G2 phase at IC50 incubated for 48 hrs by PI staining based flow cytometric analysis (reference value: 38.15 +/- 1.80%); type: functional
# HCT-116 [15] = experiment: Induction of cell cycle arrest in human HCT-116 cells assessed as accumulation of cells at G1 phase at IC50 incubated for 24 hrs by PI staining based flow cytometric analysis relative to control; type: functional
# HCT-116 [16] = experiment: Induction of cell cycle arrest in human HCT-116 cells assessed as accumulation of cells at G2 phase at IC50 incubated for 24 hrs by PI staining based flow cytometric analysis relative to control; type: functional
# HCT-116 [17] = experiment: Induction of cell cycle arrest in human HCT-116 cells assessed as accumulation of cells at G1 phase at IC50 incubated for 48 hrs by PI staining based flow cytometric analysis relative to control; type: functional
# HCT-116 [18] = experiment: Induction of cell cycle arrest in human HCT-116 cells assessed as accumulation of cells at S phase at IC50 incubated for 48 hrs by PI staining based flow cytometric analysis; type: functional
# HCT-116 [19] = experiment: Induction of DNA damage in human HCT-116 cells assessed as gammaH2AX positive cells at IC50 incubated for 48 hrs by PI staining based flow cytometric analysis (reference value: 6.24 +/- 1.94%); type: functional
# Mitochondrial membrane [20] = experiment: Induction of mitochondrial membrane depolarization in human A549 cells assessed as decrease in ratio of J-aggregates to J-monomer incubated for 24 hrs by JC-1 staining based flow cytometric analysis (reference value: 17.72 +/- 3.94%); type: cell membranes
# Mitochondrial membrane [21] = experiment: Induction of mitochondrial membrane depolarization in human HCT-116 cells assessed as increase in mitochondrial fission by measuring appearance of shortened mitochondria by confocal microscopic analysis; type: cell membranes
# Mitochondrial membrane [22] = experiment: Induction of mitochondrial membrane depolarization in human HCT-116 cells assessed as increase in mitochondrial fission by measuring appearance of spherical mitochondria by confocal microscopic analysis; type: cell membranes
# Mitochondrial membrane [23] = experiment: Induction of mitochondrial membrane depolarization in human HCT-116 cells assessed as increase in mitochondrial fission by measuring appearance of circular mitochondria by confocal microscopic analysis; type: cell membranes
# Mitochondrial membrane [24] = experiment: Disruption of mitochondrial membrane integrity in human HCT-116 cells assessed as change in mitochondrial size by TEM analysis; type: cell membranes
# Mitochondrial membrane [25] = experiment: Disruption of mitochondrial membrane integrity in human HCT-116 cells assessed as change in mitochondrial shape by TEM analysis; type: cell membranes
# Mitochondrial membrane [26] = experiment: Disruption of mitochondrial membrane integrity in human HCT-116 cells assessed as change in mitochondrial internal organization by TEM analysis; type: cell membranes
# Mitochondrial membrane [27] = experiment: Disruption of mitochondrial membrane integrity in human HCT-116 cells assessed as mitochondrial swelling by TEM analysis; type: cell membranes
# Mitochondrial membrane [28] = experiment: Disruption of mitochondrial membrane integrity in human HCT-116 cells assessed as disruption of normal mitochondrial distribution by TEM analysis; type: cell membranes
# Mitochondrial membrane [29] = experiment: Disruption of mitochondrial membrane integrity in human HCT-116 cells assessed as organization of mtDNA nucleoids within cells by TEM analysis; type: cell membranes
# Mitochondrial membrane [30] = experiment: Disruption of mitochondrial membrane integrity in human HCT-116 cells assessed as presence of large mitochondria by TEM analysis; type: cell membranes
# Mitochondrial membrane [31] = experiment: Disruption of mitochondrial membrane integrity in human HCT-116 cells assessed as presence of bloated mitochondria by TEM analysis; type: cell membranes
# Mitochondrial membrane [32] = experiment: Disruption of mitochondrial membrane integrity in human HCT-116 cells assessed as absence of well-developed cristae by TEM analysis; type: cell membranes
# A549 [33] = experiment: Induction of apoptosis in human A549 cells assessed as apoptotic rate at IC50 incubated for 24 hrs by Annexin-V and 7-AAD staining based flow cytometric analysis (reference value: 4.56 +/- 0.81%); type: functional
# A549 [34] = experiment: Induction of apoptosis in human A549 cells assessed as apoptotic rate at IC50 incubated for 48 hrs by Annexin-V and 7-AAD staining based flow cytometric analysis (reference value: 6.56 +/- 1.17%); type: functional
# HCT-116 [35] = experiment: Induction of apoptosis in human HCT-116 cells assessed as increase in apoptotic cells incubated for 24 hrs by Annexin-V and 7-AAD staining based flow cytometric analysis (reference value: 8.10 +/- 2.16%); type: functional
# HCT-116 [36] = experiment: Induction of apoptosis in human HCT-116 cells assessed as increase in apoptotic cells incubated for 48 hrs by Annexin-V and 7-AAD staining based flow cytometric analysis (reference value: 6.82 +/- 1.05%); type: functional
# [37] = Toxicity in chicken embryo chorioallantoic membrane at nanomolar concentration measured at day 6 by Kaplan Mayer survival analysis; type: tissue-based, Gallus gallus; conditions: in vivo
# [38] = Toxicity in chicken embryo chorioallantoic membrane assessed as survival rate at 1.5 uM measured at day 6 by Kaplan Mayer survival analysis relative to control; type: tissue-based, Gallus gallus
# [39] = Toxicity in chicken embryo chorioallantoic membrane assessed as survival rate at 4.5 uM measured at day 6 by Kaplan Mayer survival analysis relative to control; type: tissue-based, Gallus gallus
# A549 [40] = experiment: Induction of DNA damage in human A549 cells assessed as increase in gammaH2AX positive cells at IC50 incubated for 48 hrs by PI staining based flow cytometric analysis; type: functional, cell-based
# Mitochondrial membrane [41] = experiment: Disruption of mitochondrial membrane potential in human HCT-116 cells assessed as translocation of cytochrome c to cytoplasm at IC50 incubated for 48 hrs by confocal microscopic analysis; type: cell membranes
# HL-60 = experiment: Cytotoxicity against human HL-60 cells; type: functional, cell-based
structure (smiles),measurement,setting,value
CCc1ccc(C(=O)NC2CCc3[nH]c4ccc(NC(C)=O)cc4c3C2)o1 (configuration not stated),pIC50,MCF7 [1],< 4.30
same,pIC50,A549 [2],< 4.30
same,pIC50,HCT-116 [3],< 4.30
same,IC50 at 72 h,[4],> 50 µM
CC(=O)Nc1ccc2[nH]c3c(c2c1)CC(NC(=O)c1ccc(C)s1)CC3 (configuration not stated),pIC50,MCF7 [1],< 4.30
same,pIC50,A549 [2],< 4.30
same,pIC50,HCT-116 [3],< 4.30
same,IC50 at 72 h,[4],> 50 µM
O=C(CSC(=S)N1CCN(c2ccc(Cl)cc2)CC1)n1c2c(c3ccccc31)CCCC2,pIC50,MCF7 [5],5.14
same,pIC50,HCT-116 [6],5.08
CC(=O)Nc1ccc2[nH]c3c(c2c1)CC(NC(=O)c1ccccc1)CC3 (configuration not stated),pIC50,MCF7 [1],< 4.30
same,pIC50,A549 [2],< 4.30
same,pIC50,HCT-116 [3],< 4.30
same,IC50 at 72 h,[4],> 50 µM
CC(=O)Nc1ccc2[nH]c3c(c2c1)CC(NC(=O)c1cc2ccccc2[nH]1)CC3 (configuration not stated),pIC50,MCF7 [1],< 4.30
same,pIC50,A549 [2],< 4.30
same,pIC50,HCT-116 [3],< 4.30
same,IC50 at 72 h,[4],> 50 µM
CC(=O)Nc1ccc2[nH]c3c(c2c1)CC(NC(=O)OC(C)(C)C)CC3 (configuration not stated),pIC50,MCF7 [1],< 4.30
same,pIC50,A549 [2],< 4.30
same,pIC50,HCT-116 [3],< 4.30
same,IC50 at 72 h,[4],> 50 µM
CC(=S)NC1CCc2[nH]c3ccc(OC(F)(F)F)cc3c2C1 (configuration not stated),pIC50,MCF7 [1],4.51
same,pIC50,A549 [2],4.59
same,pIC50,HCT-116 [3],4.63
same,IC50 at 72 h,[4],> 50 µM
same,inhibition,MCF7 [7],Dose-Dependent Effect
same,inhibition,HCT-116 [8],Dose-Dependent Effect
same,inhibition,A549 [9],Dose-Dependent Effect
same,inhibition,A549 [10],Active
same,inhibition,HCT-116 [11],Active
same,Activity,A549 [12],15.45%
same,Activity,A549 [13],53.35%
same,Activity,A549 [14],46.75%
same,Activity,HCT-116 [15],16.95%
same,Activity,HCT-116 [16],17.95%
same,Activity,HCT-116 [17],31.15%
same,Activity,HCT-116 [18],18.9%
same,Activity,HCT-116 [19],14.63%
same,Activity,Mitochondrial membrane [20],16.9
same,Activity,Mitochondrial membrane [21],Active
same,Activity,Mitochondrial membrane [22],Active
same,Activity,Mitochondrial membrane [23],Active
same,Activity,Mitochondrial membrane [24],Active
same,Activity,Mitochondrial membrane [25],Active
same,Activity,Mitochondrial membrane [26],Active
same,Activity,Mitochondrial membrane [27],Active
same,Activity,Mitochondrial membrane [28],Active
same,Activity,Mitochondrial membrane [29],Active
same,Activity,Mitochondrial membrane [30],Active
same,Activity,Mitochondrial membrane [31],Active
same,Activity,Mitochondrial membrane [32],Active
same,Activity,A549 [33],16.64%
same,Activity,A549 [34],27.97%
same,Activity,HCT-116 [35],17.5%
same,Activity,HCT-116 [36],45.03%
same,Activity,[37],Non-Toxic
same,survival at 1.5 µM,[38],70%
same,survival at 4.5 µM,[39],70%
same,Activity,A549 [40],Active
same,Activity,Mitochondrial membrane [41],Active
CC[C@]12CCCN3C(=O)C(=O)O[C@@]31c1c([nH]c3ccccc13)CC2,pIC50,HL-60,< 4.00
